Experimental data taken from patent US20170066759A1, “AROMATIC 5-MEMBERED HETEROCYCLIC DERIVATIVE HAVING TRPV4-INHIBITING ACTIVITY” (Shionogi & Co., Ltd., priority 2012, published 2017).
pIC50: −log10 of the molar value.

Experiments:
CYP1A2 = biological target: T1, CYP1A2 (Homo sapiens, UniProt P05177); assay: Test Example 6: CYP inhibition test, 7-ethoxyresorufin O-deethylation (CYP1A2); type: in vitro ADME; settings: pooled human hepatic microsome, 0.5 μmol/L ethoxyresorufin
T1 construct: enzyme, pooled human hepatic microsome 0.2 mg protein/mL; from tissue; host or cells: pooled human liver microsomes
T1 sequence (P05177 1-516): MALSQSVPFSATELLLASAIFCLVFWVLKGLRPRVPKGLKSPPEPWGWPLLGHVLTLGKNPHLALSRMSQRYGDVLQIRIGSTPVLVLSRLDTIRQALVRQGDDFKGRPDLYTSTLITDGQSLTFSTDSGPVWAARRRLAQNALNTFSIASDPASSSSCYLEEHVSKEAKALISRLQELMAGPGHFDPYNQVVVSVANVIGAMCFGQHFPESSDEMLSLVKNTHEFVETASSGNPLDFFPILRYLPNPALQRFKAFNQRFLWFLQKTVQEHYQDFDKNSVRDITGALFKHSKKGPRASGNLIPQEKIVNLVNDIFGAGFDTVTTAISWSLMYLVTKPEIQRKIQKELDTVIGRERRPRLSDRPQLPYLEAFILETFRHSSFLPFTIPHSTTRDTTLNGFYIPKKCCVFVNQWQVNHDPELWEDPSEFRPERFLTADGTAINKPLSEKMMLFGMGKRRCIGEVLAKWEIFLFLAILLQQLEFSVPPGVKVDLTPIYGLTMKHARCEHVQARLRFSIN
Procedure: (§1) Test Example 6 CYP Inhibition Test […] The reaction conditions were as follows: substrate, 0.5 μmol/L ethoxyresorufin (CYP1A2), 100 μmol/L tolbutamide (CYP2C9), 50 μmol/L S-mephenytoin (CYP2C19), 5 μmol/L dextromethorphan (CYP2D6), 1 μmol/L terfenedine (CYP3A4); reaction time, 15 minutes; reaction temperature, 37° C.; enzyme, pooled human hepatic microsome 0.2 mg protein/mL; concentration of the compound of the present invention, 1, 5, 10, 20 μmol/L (four points). Each five kinds of substrates, human hepatic microsome, and the compound of the present invention in 50 mmol/L Hepes buffer as a reaction solution were added to a 96-well plate at the composition as described above. NADPH, as a cofactor was added to initiate metabolism reactions as markers and, after the incubation at 37° C. for 15 minutes, a methanol/acetonitrile=1/1 (v/v) solution was added to stop the reaction. After the centrifugation at 3000 rpm for 15 minutes, resorufin (CYP1A2 metabolite) in the supernatant was quantified by a fluorescent multilabel counter and toltributamide hydroxide (CYP2[…] metabolite), mephenytoin 4' hydroxide (CYP2C19 metabolite), […], and terfenadine alcohol (CYP3A4 metabolite) were quantified by LC/MS/MS. Addition of only DMSO being a solvent dissolving the compound of the present invention to a reaction system was adopted as a control (100%). Remaining activity (%) was calculated at each concentration of the compound of the present invention added as the solution and IC50 was calculated by reverse presumption by a logistic model using a concentration and an inhibition rate.

CYP2C9 = biological target: T2, CYP2C9 (Homo sapiens, UniProt P11712); assay: Test Example 6: CYP inhibition test, tolbutamide methyl-hydroxylation (CYP2C9); type: in vitro ADME; settings: pooled human hepatic microsome, 100 μmol/L tolbutamide
T2 construct: enzyme, pooled human hepatic microsome 0.2 mg protein/mL; from tissue; host or cells: pooled human liver microsomes
Procedure: as §1

CYP2C19 = biological target: T3, CYP2C19 (Homo sapiens, UniProt P33261); assay: Test Example 6: CYP inhibition test, mephenytoin 4′-hydroxylation (CYP2C19); type: in vitro ADME; settings: pooled human hepatic microsome, 50 μmol/L S-mephenytoin
T3 construct: enzyme, pooled human hepatic microsome 0.2 mg protein/mL; from tissue; host or cells: pooled human liver microsomes
Procedure: as §1

[1] = Test Example 11: BA test (oral absorbability); type: in vivo; settings: plasma; Mouse, oral administration 1 mg/kg
Procedure: Materials and methods for experiments to evaluate oral absorbability
(1) Experimental animals: rats or mice were used. (2) Breeding condition: rats or mice were allowed free access to solid feed and sterilized tap water (3) Setting of dosage and grouping: Oral administration and intravenous administration were performed with the predetermined dosage. Grouping was set as below. (Dosage varied depending on each compound)
Oral administration 1 to 30 mg/kg (n=2 to 3)
Intravenous administration 0.5 to 10 mg/kg (n=2 to 3)
(4) Preparation of administered liquid: Oral administration was performed using a solution or a suspension. Intravenous administration was performed after solubilization. (5) Method of Administration: In oral administration, compulsory administration to the stomach was conducted using an oral sonde. […] (6) Evaluation items: Blood was chronologically collected, and then concentration of a compound of the present invention in blood plasma was measured using a LC/MS/MS. […]
(7) Statistical analysis: With regard to a shift in plasma concentration of the compound of the present invention, the area under the plasma concentration-time curve (AUC) was calculated using a nonlinear least-squares program, WinNonlin (a registered trademark). Bioavailability (BA) was calculated from the AUCs of the oral administration group and the intravenous administration group. […]

T2 sequence (P11712 whole entry): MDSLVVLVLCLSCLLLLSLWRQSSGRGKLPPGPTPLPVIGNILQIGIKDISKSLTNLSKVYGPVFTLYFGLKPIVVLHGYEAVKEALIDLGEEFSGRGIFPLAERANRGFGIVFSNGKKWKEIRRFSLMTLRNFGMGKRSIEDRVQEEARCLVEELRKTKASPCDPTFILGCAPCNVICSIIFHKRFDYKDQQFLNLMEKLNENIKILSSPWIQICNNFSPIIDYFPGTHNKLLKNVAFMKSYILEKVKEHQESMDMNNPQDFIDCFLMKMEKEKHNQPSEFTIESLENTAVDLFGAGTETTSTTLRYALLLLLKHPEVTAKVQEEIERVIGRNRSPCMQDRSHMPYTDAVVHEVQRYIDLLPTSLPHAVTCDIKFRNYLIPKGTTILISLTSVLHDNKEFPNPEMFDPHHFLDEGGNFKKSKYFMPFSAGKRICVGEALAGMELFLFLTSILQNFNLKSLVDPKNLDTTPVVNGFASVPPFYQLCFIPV
T3 sequence (P33261 whole entry): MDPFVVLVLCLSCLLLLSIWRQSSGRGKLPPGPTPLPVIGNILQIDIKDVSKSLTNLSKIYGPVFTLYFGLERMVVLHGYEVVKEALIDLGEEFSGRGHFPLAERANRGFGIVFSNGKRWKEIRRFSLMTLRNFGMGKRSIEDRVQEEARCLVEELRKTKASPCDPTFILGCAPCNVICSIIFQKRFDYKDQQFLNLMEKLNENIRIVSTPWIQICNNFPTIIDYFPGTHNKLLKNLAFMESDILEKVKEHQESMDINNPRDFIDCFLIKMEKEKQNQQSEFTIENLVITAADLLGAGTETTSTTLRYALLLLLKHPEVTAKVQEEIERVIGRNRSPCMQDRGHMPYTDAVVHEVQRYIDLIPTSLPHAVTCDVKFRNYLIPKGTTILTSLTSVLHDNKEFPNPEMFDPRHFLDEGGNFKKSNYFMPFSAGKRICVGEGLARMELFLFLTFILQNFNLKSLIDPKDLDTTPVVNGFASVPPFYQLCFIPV

pIC50 (CYP1A2): < 4.70
pIC50 (CYP2C9): < 4.70
pIC50 (CYP2C19): < 4.70
bioavailability [1]: 54.6%
Structure (SMILES): Cc1nc(C)c(-c2csc(NC(=O)Cc3ccc(S(C)(=O)=O)cc3)n2)s1 [Compound I-17]
